Read-outs that look alike come from different tables or passages of the source.
Experiments:
Assay type in all cases: cell-based
[1] = test system: HCV 1b RLuc cells (dicistronic genotype 1b Con1 replicon, RLuc reporter); experiment: microbe, parasite or virus in culture; details: Hepatitis C virus, read-out: 1b (nM)
How it was run: (§1)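 Renilla luciferase HCV replicon cells: dicistronic 1b Con1, 1a H77 or 2a JFH-1 replicons, or a JFH-1 chimera carrying J6 NS5A (M31 present). Compound in DMSO serial dilutions, 72 h incubation, then lysis and luciferase read. EC50 by non-linear regression.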

[2] = test system: HCV 3a RLuc cells (NS5A chimeric genotype 1b Con1 replicon with consensus genotype 3a NS5A gene); experiment: microbe, parasite or virus in culture; details: Hepatitis C virus
How it was run: (§2)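 Replicon cells stably carrying the listed RLuc-encoding dicistronic replicons were seeded and treated with DMSO serial dilutions of compound (10 mM stocks) diluted into culture medium. After 72 h, cells were lysed and Renilla luciferase activity measured. EC50 was derived by non-linear regression.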

[3] = test system: HCV 2a JFH-1 Rluc cells (dicistronic genotype 2a JFH-1 replicon, RLuc reporter); experiment: microbe, parasite or virus in culture; details: Hepatitis C virus, read-out: 2a JFH
How it was run: as §1

[4] = test system: HCV 2b Rluc cells (NS5A chimeric genotype 2a JFH-1 replicon with genotype 2b MD2b-1 NS5A gene, M31 present); experiment: microbe, parasite or virus in culture; details: Hepatitis C virus, read-out: 2b
How it was run: as §2

[5] = test system: HCV 1a RLuc cells (dicistronic genotype 1a H77 replicon, RLuc reporter); experiment: microbe, parasite or virus in culture; details: Hepatitis C virus, read-out: 1a
How it was run: as §1

[6] = test system: HCV 4a Rluc cells (NS5A chimeric genotype 1b Con1 replicon with genotype 4a NS5A gene); experiment: microbe, parasite or virus in culture; details: Hepatitis C virus, read-out: 4a
How it was run: as §2

[7] = test system: HCV 2a Rluc cells (NS5A chimeric genotype 2a JFH-1 replicon with genotype 2a J6 strain NS5A gene, M31 present); experiment: HCV replicon reporter assay, genotype 2a J6 (M31 present); details: Hepatitis C virus, read-out: 2a J6
How it was run: as §1

[8] = test system: Q30R in genotype 1a NS5A, 1a Rluc replicon transfected into Huh-7 cured-51 cells; experiment: HCV replicon assay, resistance mutant 1a Q30R; details: Hepatitis C virus, Huh-7, read-out: 1a Q30R
How it was run: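 Q30R introduced into genotype 1a H77 RLuc replicon by site-directed mutagenesis; replicon RNA transfected into Huh-7 cured-51 cells.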

[9] = read-out: 3a, genotype 3a NS5A chimeric replicon
[10] = genotype 2a JFH-1 RLuc replicon
[11] = read-out: 3a, genotype 3a replicon

## COC[C@H]1C[C@@H](c2ncc(-c3ccc(-c4ccc(-c5cnc([C@@H]6CCCN6C(=O)[C@@H](NC(=O)OC)C(C)C)[nH]5)cc4)cc3)[nH]2)N(C(=O)[C@H](NC(=O)OC)c2ccccc2)C1 [Example 500]
[1]
  EC50: 0.028 nM
[2]; [9]
  EC50: 1 to 990 pM
[3]; [10]
  EC50: 1 to 999 pM
[4]
  EC50: 1 to 999 pM
[5]; genotype 1a H77 RLuc replicon
  EC50: 1 to 999 pM
[6]
  EC50: 1 to 990 pM
[7]
  EC50: 1000 to 44000 pM
[8]
  EC50: 1 to 999 pM

## COC(=O)N[C@H](C(=O)N1[C@H]2CC[C@H](C2)[C@H]1c1nc2ccc3cc(-c4ccc5c(ccc6nc([C@@H]7CCCN7C(=O)[C@H](NC(=O)OC)c7ccccc7)[nH]c65)c4)ccc3c2[nH]1)C(C)C [Example 430]
[1]
  EC50: 0.036 nM
[2]; [11]
  EC50: 1 to 990 pM
[3]; genotype 2a JFH-1 replicon
  EC50: 1 to 999 pM
[4]
  EC50: 1 to 999 pM
[5]; genotype 1a replicon
  EC50: 1 to 999 pM
[6]
  EC50: 1 to 990 pM
[7]
  EC50: 1 to 999 pM
[8]
  EC50: 1000 to 44000 pM

## COC[C@H]1C[C@@H](c2nc3ccc4cc(-c5ccc(-c6[nH]c([C@@H]7CCCN7C(=O)[C@H](NC(=O)C7CC7)c7ccccc7)nc6C)cc5)ccc4c3[nH]2)N(C(=O)[C@@H](NC(=O)OC)C(C)C)C1 [Example 525]
[1]
  EC50: 0.038 nM
[2]; [9]
  EC50: 1 to 990 pM
[3]; [10]
  EC50: 1 to 999 pM
[4]
  EC50: 1 to 999 pM
[5]; genotype 1a H77 RLuc replicon
  EC50: 1 to 999 pM
[6]
  EC50: 1 to 990 pM
[7]
  EC50: 1 to 999 pM
[8]
  EC50: 1 to 999 pM

## COC(=O)N[C@H](C(=O)N1C[C@@H](C)C[C@H]1c1ncc(-c2ccc3c(c2)COc2cc4c(ccc5nc([C@@H]6C[C@H](C)CN6C(=O)[C@@H](NC(=O)OC)C(C)C)[nH]c54)cc2-3)[nH]1)C(C)C [Example 569]
[1]
  EC50: 0.024 nM
[2]; [9]
  EC50: 1 to 990 pM
[3]; [10]
  EC50: 1 to 999 pM
[4]
  EC50: 1 to 999 pM
[5]; genotype 1a H77 RLuc replicon
  EC50: 1 to 999 pM
[6]
  EC50: 1 to 990 pM
[7]
  EC50: 1 to 999 pM
[8]
  EC50: 1 to 999 pM

## COC(=O)N[C@H](C(=O)N1CCC[C@H]1c1ncc(-c2ccc3c(c2)COc2cc4c(ccc5nc([C@@H]6CCCN6C(=O)[C@H](NC(=O)OC)c6ccccc6)[nH]c54)cc2-3)[nH]1)C(C)C [Example 423]
[1]
  EC50: 0.02 nM
[2]; [11]
  EC50: 1 to 990 pM
[3]; genotype 2a JFH-1 replicon
  EC50: 1 to 999 pM
[4]
  EC50: 1 to 999 pM
[5]; genotype 1a replicon
  EC50: 1 to 999 pM
[6]
  EC50: 1 to 990 pM
[7]
  EC50: 1 to 999 pM
[8]
  EC50: 1 to 999 pM

## COCC(=O)N[C@@H](C(=O)N1C[C@@H](COC)C[C@H]1c1nc2ccc3cc(-c4ccc5c(ccc6nc([C@@H]7C[C@H](C)CN7C(=O)[C@@H](NC(=O)OC)C(C)C)[nH]c65)c4)ccc3c2[nH]1)c1ccccc1 [Example 550]
[1]
  EC50: 0.013 nM
[2]; [9]
  EC50: 1 to 990 pM
[3]; [10]
  EC50: 1 to 999 pM
[4]
  EC50: 1 to 999 pM
[5]; genotype 1a H77 RLuc replicon
  EC50: 1 to 999 pM
[6]
  EC50: 1 to 990 pM
[7]
  EC50: 1 to 999 pM
[8]
  EC50: 1 to 999 pM

## COC(=O)N[C@H](C(=O)N1[C@H](c2nc3ccc4cc5c(cc4c3[nH]2)OCc2cc(-c3cnc(C4CCCN4C(=O)[C@@H](NC(=O)OC)C4CCOCC4)[nH]3)ccc2-5)C[C@@H]2CCC[C@@H]21)C(C)C (stereo partly shown) [Example 575]
[1]
  EC50: 0.029 nM
[2]; [9]
  EC50: 1 to 990 pM
[3]; [10]
  EC50: 1 to 999 pM
[4]
  EC50: 1 to 999 pM
[5]; genotype 1a H77 RLuc replicon
  EC50: 1 to 999 pM
[6]
  EC50: 1 to 990 pM
[7]
  EC50: 1 to 999 pM
[8]
  EC50: 1 to 999 pM

## COC(=O)N[C@H](C(=O)N1[C@@H](C)CC[C@H]1c1ncc(-c2ccc3c(c2)COc2cc4c(ccc5nc([C@@H]6CC[C@H](C)N6C(=O)[C@@H](NC(=O)OC)C(C)C)[nH]c54)cc2-3)[nH]1)C(C)C [Example 585]
[1]
  EC50: 0.009 nM
[2]; [9]
  EC50: 1 to 990 pM
[3]; [10]
  EC50: 1 to 999 pM
[4]
  EC50: 1 to 999 pM
[5]; genotype 1a H77 RLuc replicon
  EC50: 1 to 999 pM
[6]
  EC50: 1 to 990 pM
[7]
  EC50: 1 to 999 pM
[8]
  EC50: 1 to 999 pM

Source: patent US10344019B2 (priority 2010, dated 2019)
